Measured values from US20230192676A1, “Heterocyclic Amides as Kinase Inhibitors” (GLAXOSMITHKLINE INTELLECTUAL PROPERTY DEVELOPMENT LIMITED, priority 2017, published 2023).

Tested on: U937 cells
Assay: necroptosis assay in human monocytic leukemia U937 cells (Cell Titer-Glo ATP viability readout)
Type: cell-based
Conditions: U-937, viability by cellular ATP (Cell Titer-Glo), values approximate, read-out: pIC50, inhibition of necrosis in U937 cells (converted)
Description: The efficacy of RIP1 inhibitors can be tested in […] in vitro using a human monocytic leukemia U937 in a necroptosis assay. As determined using the method described in S. He et al., Cell, 137(6):1100-1111 (2009) and International Patent Appln. No. PCT/IB2014/059004, now, International Patent Appln. Pub.
Viability was measured by quantitating cellular levels of ATP using the Cell Titer-Glo kit. All data are means±standard deviation of the mean.

## CC(=O)N1CCC(C(=O)N2OCC[C@H]2c2cc(F)cc(F)c2)CC1 [Example 2, (S)-1-(4-(3-(3,5-difluorophenyl)isoxazolidine-2-carbonyl)piperidin-1-yl)ethan-1-one]
  IC50: 1 to 100 nM

## NC(=O)c1cc(N2CCC(C(=O)N3OCC[C@H]3c3cc(F)cc(F)c3)CC2)ncn1 [Example 4, (S)-6-(4-(3-(3,5-difluorophenyl)isoxazolidine-2-carbonyl)piperidin-1-yl)pyrimidine-4-carboxamide]
  IC50: 1 to 100 nM

## Cc1nnc(N2CCC(C(=O)N3OCC[C@H]3c3cc(F)cc(F)c3)CC2)o1 [Example 5, (S)-(3-(3,5-difluorophenyl)isoxazolidin-2-yl)(1-(5-methyl-1,3,4-oxadiazol-2-yl)piperidin-4-yl)methanone]
  IC50: 1 to 100 nM

## N#Cc1cc(N2CCC(C(=O)N3OCC[C@H]3c3cc(F)cc(F)c3)CC2)ncn1 [Example 8, (S)-6-(4-(3-(3,5-difluorophenyl)isoxazolidine-2-carbonyl)piperidin-1-yl)pyrimidine-4-carbonitrile]
  IC50: 1 to 100 nM

## CNC(=O)c1cc(N2CCC(C(=O)N3OCC[C@H]3c3cc(F)cc(F)c3)CC2)ncn1 [Example 9, (S)-6-(4-(3-(3,5-difluorophenyl)isoxazolidine-2-carbonyl)piperidin-1-yl)-N-methylpyrimidine-4-carboxamide]
  IC50: 1 to 100 nM

## CN(C)C(=O)c1cc(N2CCC(C(=O)N3OCC[C@H]3c3cc(F)cc(F)c3)CC2)ncn1 [Example 10, (S)-6-(4-(3-(3,5-difluorophenyl)isoxazolidine-2-carbonyl)piperidin-1-yl)-N,N-dimethylpyrimidine-4-carboxamide]
  IC50: 1 to 100 nM

## Cc1nnc(N2CC[C@H](C(=O)N3OCC[C@@H]3c3cc(F)cc(F)c3)[C@H](F)C2)o1 [Example 16, ((R)-3-(3,5-difluorophenyl)isoxazolidin-2-yl)((3S,4R)-3-fluoro-1-(5-methyl-1,3,4-oxadiazol-2-yl)piperidin-4-yl)methanone]
  IC50: 1 to 100 nM

## Cc1nnc(N2CC[C@@H](C(=O)N3OCC[C@@H]3c3cc(F)cc(F)c3)[C@@H](F)C2)o1 [Example 18, ((R)-3-(3,5-difluorophenyl)isoxazolidin-2-yl)((3R,4S)-3-fluoro-1-(5-methyl-1,3,4-oxadiazol-2-yl)piperidin-4-yl)methanone]
  IC50: 1 to 100 nM

## O=C([C@H]1CCN(c2nnco2)C[C@H]1F)N1OCC[C@@H]1c1cc(F)cc(F)c1 [Example 22, ((R)-3-(3,5-difluorophenyl)isoxazolidin-2-yl)((3S,4R)-3-fluoro-1-(1,3,4-oxadiazol-2-yl)piperidin-4-yl)methanone]
  IC50: 1 to 100 nM

## NC(=O)c1cc(N2CC[C@H](C(=O)N3OCC[C@@H]3c3cc(F)cc(F)c3)[C@H](F)C2)ncn1 [Example 26, 6-((3S,4R)-4-((R)-3-(3,5-difluorophenyl)isoxazolidine-2-carbonyl)-3-fluoropiperidin-1-yl)pyrimidine-4-carboxamide]
  IC50: 1 to 100 nM

## CNC(=O)c1cc(N2CC[C@H](C(=O)N3OCC[C@@H]3c3cc(F)cc(F)c3)[C@H](F)C2)ncn1 [Example 30, 6-((3S,4R)-4-((R)-3-(3,5-difluorophenyl)isoxazolidine-2-carbonyl)-3-fluoropiperidin-1-yl)-N-methylpyrimidine-4-carboxamide]
  IC50: 1 to 100 nM

## CNC(=O)c1cc(N2CC[C@@H](C(=O)N3OCC[C@@H]3c3cc(F)cc(F)c3)[C@@H](F)C2)ncn1 [Example 32, 6-((3R,4S)-4-((R)-3-(3,5-difluorophenyl)isoxazolidine-2-carbonyl)-3-fluoropiperidin-1-yl)-N-methylpyrimidine-4-carboxamide]
  IC50: 1 to 100 nM

## CN(C)C(=O)c1cc(N2CC[C@H](C(=O)N3OCC[C@@H]3c3cc(F)cc(F)c3)[C@H](F)C2)ncn1 [Example 34, 6-((3S,4R)-4-((R)-3-(3,5-difluorophenyl)isoxazolidine-2-carbonyl)-3-fluoropiperidin-1-yl)-N,N-dimethylpyrimidine-4-carboxamide]
  IC50: 1 to 100 nM

## CN(C)C(=O)c1cc(N2CC[C@H](C(=O)N3OCC[C@H]3c3cc(F)cc(F)c3)[C@H](F)C2)ncn1 [Example 35, 6-((3S,4R)-4-((S)-3-(3,5-difluorophenyl)isoxazolidine-2-carbonyl)-3-fluoropiperidin-1-yl)-N,N-dimethylpyrimidine-4-carboxamide]
  IC50: 1 to 100 nM

## C[S@@+]([O-])c1cc(N2CC[C@H](C(=O)N3OCC[C@@H]3c3cc(F)cc(F)c3)[C@H](F)C2)ncn1 [Example 44, ((R)-3-(3,5-difluorophenyl)isoxazolidin-2-yl)((3S,4R)-3-fluoro-1-(6-((R)-methylsulfinyl)pyrimidin-4-yl)piperidin-4-yl)methanone]
  IC50: 1 to 100 nM

## C[S@+]([O-])c1cc(N2CC[C@@H](C(=O)N3OCC[C@@H]3c3cc(F)cc(F)c3)[C@@H](F)C2)ncn1 [Example 46, ((R)-3-(3,5-difluorophenyl)isoxazolidin-2-yl)((3R,4S)-3-fluoro-1-(6-((S)-methylsulfinyl)pyrimidin-4-yl)piperidin-4-yl)methanone]
  IC50: 1 to 100 nM
